Experiments:
[1] = molecular target: CYP2C8
[2] = molecular target: T1, BMPR2 (Homo sapiens, UniProt Q13873); experiment: 375-member kinase panel; format: biochemical; settings: Run 1, Run 2; for % enzyme activity: 1 μM; for remaining activity at 1 µM: read-out: % enzyme activity, 1 μM
T1 construct: purchased Reaction Biology Corporation
T1 sequence (Q13873 27-1038): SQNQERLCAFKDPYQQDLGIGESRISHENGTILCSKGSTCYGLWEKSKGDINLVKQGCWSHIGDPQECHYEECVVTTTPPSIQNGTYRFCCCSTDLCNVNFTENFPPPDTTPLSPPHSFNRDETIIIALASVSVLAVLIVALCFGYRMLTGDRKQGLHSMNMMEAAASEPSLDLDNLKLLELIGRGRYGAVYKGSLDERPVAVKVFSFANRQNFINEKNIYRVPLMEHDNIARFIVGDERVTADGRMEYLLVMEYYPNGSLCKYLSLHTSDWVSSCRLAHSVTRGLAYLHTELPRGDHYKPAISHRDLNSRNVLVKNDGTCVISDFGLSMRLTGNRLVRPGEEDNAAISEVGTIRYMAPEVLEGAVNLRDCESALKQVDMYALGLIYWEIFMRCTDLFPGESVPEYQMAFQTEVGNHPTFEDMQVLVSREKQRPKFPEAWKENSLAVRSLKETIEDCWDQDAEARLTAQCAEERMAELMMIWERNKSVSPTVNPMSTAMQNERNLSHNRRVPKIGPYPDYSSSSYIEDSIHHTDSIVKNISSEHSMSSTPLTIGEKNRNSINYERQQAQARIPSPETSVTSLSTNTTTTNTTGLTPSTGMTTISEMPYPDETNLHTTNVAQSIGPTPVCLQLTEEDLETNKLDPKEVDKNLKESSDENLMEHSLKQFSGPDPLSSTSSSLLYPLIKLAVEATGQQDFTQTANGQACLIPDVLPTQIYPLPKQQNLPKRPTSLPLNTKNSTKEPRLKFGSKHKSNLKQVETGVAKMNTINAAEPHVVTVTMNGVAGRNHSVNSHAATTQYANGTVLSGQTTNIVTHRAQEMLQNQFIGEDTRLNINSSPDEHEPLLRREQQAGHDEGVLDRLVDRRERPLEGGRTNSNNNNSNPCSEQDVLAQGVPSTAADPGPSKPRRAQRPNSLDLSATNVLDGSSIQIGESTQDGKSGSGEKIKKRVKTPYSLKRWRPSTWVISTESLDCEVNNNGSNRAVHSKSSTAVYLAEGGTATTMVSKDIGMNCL

[3] = molecular target: MAPKAPK3 (Homo sapiens, UniProt Q16644); settings: 1 μM; Run 1, Run 2
MAPKAPK3, sequence (Q16644 whole entry): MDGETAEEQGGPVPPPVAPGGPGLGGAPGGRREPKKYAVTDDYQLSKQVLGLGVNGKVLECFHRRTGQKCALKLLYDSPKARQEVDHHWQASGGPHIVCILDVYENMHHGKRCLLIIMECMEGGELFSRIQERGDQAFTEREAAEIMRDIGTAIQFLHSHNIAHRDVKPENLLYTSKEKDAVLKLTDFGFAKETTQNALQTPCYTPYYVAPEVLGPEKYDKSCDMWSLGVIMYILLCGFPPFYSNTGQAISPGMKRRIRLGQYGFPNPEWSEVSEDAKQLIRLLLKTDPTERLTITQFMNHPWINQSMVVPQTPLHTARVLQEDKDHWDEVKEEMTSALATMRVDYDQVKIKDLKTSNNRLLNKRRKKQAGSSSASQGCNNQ

[4] = molecular target: VRK2 (Homo sapiens, UniProt Q86Y07); settings: 1 μM; Run 1, Run 2
VRK2, sequence (Q86Y07 whole entry, species assumed): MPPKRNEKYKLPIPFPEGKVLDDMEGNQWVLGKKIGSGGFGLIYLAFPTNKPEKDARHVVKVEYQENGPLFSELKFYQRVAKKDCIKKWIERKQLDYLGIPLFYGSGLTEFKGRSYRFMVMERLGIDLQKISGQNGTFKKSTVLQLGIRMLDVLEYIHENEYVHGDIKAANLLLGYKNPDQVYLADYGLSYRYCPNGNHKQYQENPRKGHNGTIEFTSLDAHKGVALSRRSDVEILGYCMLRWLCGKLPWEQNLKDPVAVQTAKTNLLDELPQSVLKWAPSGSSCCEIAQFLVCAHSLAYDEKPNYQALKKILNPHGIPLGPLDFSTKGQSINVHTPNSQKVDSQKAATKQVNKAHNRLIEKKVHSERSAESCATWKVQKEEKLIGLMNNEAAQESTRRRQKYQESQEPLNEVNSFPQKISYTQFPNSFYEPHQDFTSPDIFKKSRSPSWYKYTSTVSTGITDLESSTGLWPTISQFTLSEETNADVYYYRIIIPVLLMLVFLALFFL

[5] = molecular target: FER (Homo sapiens, UniProt P16591); settings: 1 μM; Run 1, Run 2
FER, sequence (P16591 whole entry): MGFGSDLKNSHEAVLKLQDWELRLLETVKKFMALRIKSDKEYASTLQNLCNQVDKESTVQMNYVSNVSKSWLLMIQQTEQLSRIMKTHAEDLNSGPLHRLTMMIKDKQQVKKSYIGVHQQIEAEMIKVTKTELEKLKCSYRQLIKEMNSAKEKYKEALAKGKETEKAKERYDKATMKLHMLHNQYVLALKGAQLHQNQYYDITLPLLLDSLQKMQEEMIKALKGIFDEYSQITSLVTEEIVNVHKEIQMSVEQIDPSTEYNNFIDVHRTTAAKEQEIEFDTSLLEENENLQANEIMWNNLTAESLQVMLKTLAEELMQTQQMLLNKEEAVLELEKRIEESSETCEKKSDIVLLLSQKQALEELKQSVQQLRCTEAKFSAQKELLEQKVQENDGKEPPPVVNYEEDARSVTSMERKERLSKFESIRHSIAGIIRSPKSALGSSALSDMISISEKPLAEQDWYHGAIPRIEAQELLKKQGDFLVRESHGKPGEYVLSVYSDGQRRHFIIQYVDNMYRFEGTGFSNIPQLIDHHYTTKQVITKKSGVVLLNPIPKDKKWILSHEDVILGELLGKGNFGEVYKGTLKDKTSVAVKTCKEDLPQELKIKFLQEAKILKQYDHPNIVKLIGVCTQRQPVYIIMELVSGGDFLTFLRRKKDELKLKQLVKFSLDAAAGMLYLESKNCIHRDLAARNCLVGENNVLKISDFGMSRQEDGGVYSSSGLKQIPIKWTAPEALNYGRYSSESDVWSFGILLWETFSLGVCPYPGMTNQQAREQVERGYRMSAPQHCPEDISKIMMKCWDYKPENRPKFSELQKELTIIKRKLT

[6] = molecular target: T2, TEC (Homo sapiens, UniProt P42680); settings: 1 μM; Run 1, Run 2
T2 sequence (P42680 1-631): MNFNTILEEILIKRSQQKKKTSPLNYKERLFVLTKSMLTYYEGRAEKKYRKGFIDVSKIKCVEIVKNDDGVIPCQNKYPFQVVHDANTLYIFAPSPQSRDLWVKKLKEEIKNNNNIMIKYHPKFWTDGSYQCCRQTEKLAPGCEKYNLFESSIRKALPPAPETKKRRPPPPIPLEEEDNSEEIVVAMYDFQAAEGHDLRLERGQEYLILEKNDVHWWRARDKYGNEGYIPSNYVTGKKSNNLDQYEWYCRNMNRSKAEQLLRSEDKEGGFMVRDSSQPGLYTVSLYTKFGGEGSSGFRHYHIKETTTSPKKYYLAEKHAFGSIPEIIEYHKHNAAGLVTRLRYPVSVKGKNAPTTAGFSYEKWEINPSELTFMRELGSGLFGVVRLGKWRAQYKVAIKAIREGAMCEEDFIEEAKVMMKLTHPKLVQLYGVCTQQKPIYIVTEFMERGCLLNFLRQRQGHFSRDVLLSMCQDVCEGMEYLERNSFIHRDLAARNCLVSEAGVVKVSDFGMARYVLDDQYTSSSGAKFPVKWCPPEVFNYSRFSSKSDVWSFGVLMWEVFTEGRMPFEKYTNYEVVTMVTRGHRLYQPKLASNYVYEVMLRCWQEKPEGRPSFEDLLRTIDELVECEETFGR

[7] = molecular target: T3, ARK5/NUAK1 (Homo sapiens, UniProt O60285); settings: 1 μM; Run 1, Run 2
T3 sequence (O60285 1-661): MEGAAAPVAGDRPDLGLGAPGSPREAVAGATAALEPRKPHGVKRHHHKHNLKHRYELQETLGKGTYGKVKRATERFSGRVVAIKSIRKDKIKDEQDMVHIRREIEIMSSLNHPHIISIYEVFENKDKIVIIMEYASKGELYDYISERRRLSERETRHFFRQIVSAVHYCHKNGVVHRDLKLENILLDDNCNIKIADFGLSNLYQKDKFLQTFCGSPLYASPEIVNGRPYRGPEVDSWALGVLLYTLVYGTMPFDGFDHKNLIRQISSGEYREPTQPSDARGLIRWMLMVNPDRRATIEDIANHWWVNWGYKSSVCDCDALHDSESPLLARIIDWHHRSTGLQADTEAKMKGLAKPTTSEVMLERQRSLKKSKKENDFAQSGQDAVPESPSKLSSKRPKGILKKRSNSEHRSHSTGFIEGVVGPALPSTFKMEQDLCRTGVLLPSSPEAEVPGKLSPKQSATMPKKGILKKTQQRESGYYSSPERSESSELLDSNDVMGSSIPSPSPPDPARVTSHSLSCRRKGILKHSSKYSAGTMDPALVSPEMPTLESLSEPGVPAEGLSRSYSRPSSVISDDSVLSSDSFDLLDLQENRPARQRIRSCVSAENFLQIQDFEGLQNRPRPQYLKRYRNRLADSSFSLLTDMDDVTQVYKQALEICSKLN

Compound | CYP inhibition [1] [µM] | % enzyme activity [2] [%] | remaining activity at 1 µM [2] [%] | % enzyme activity [3] [%] | % enzyme activity [4] [%] | % enzyme activity [5] [%] | % enzyme activity [6] [%] | % enzyme activity [7] [%]
COc1cc(-c2cncc(-c3ccc(N4CCN(C)CC4)cc3)c2C)cc(F)c1C(N)=O [Compound 26a, 2-Fluoro-6-methoxy-4-(4-methyl-5-(4-(4-methylpiperazin-1-yl)phenyl)pyridin-3-yl)benzamide] | > 50 | 88.40 | 89.1 | 99.20 | 87.47 | 86.16 | 107.42 | 90.26
COc1cc(-c2cncc(-c3ccc(N4C[C@@H](C)N(C)[C@@H](C)C4)cc3)c2C)cc(F)c1C(N)=O [Compound 26c, 2-Fluoro-6-methoxy-4-(4-methyl-5-(4-((3R,5S)-3,4,5-trimethylpiperazin-1-yl)phenyl)pyridin-3-yl)benzamide] | > 50 | 100.11 | 104 | 96.39 | 89.63 | 84.91 | 106.19 | 93.75

Source: paper PMC8213057, “Targeting ALK2: An Open Science Approach to Developing Therapeutics for the Treatment of Diffuse Intrinsic Pontine Glioma” (Journal of Medicinal Chemistry, 2020)
